The subject of experiment [1] is p-ERK, ERK, p-AKT, AKT, cleaved caspase-3 in NSCLC tumor tissue. Description: Immunoblot analysis of NSCLC tumor tissue lysates. The note with it: FIG. 7. The format is in vivo, nude mice (female, BALB/cSlc-nu/nu). The procedure: The immunoblot analysis was carried out according to a previously described method. A549 cells (4×10^5) were grown to approximately 70-80% confluency and treated with oTR (5, 10, and 50 μM) for 48 hours. The cell lysates and tissue lysates were prepared and subjected to SDS-PAGE for immunoblotting with the respective antibodies. Anti-caspase-3 (9662), anti-p-AKT (4058), and anti-AKT (9272) antibodies were purchased from Cell Signaling Technology (Danvers, Mass., USA). Anti-ERK1/ERK2 (MAB1576) and anti-p-ERK1/ERK2 (AF1018) were purchased from R&D Systems (Minneapolis, Minn., USA). Anti-LC-III (NB100-2331) antibody was purchased from Novus Biologicals (Littleton, Colo., USA). Anti-β-actin (sc-47778) and anti-GAPDH (sc-47724) antibody was purchased from Santa Cruz Biotechnology (Santa Cruz, Calif., USA).
Background: Immunoblotting shows a protein as a band on a membrane.

The subject of experiment [2] is H2087. Description: MTT cell viability assay, H2087. It is filed as cell-based, Human. The note with it: 48 hours. The procedure:
(§1) Human NSCLC cell lines A549, H1437, H2087, H522, and HCC827 were obtained from the Korean Cell Line Bank (KCLB, Seoul, Korea). These cells were cultured in RPMI-1640 medium (Gibco, N.Y., USA) supplemented with 10% FBS (Gibco) and 1% penicillin-streptomycin (HyClone Laboratories, Logan, Utah, USA). All cell lines were cultured under standard conditions (5% CO2, humid environment, 37° C.). A549 cells were seeded at a density of 1×10^4 cells/well and H1437, H2087, H522, HCC827, and MRCS cells at a density of 2×10^4 cells/well in 96-well plates and were cultured until cells reach approximately 70-80% confluency. The NSCLC cells were treated with plant hormones for 48 hours. Stock solution of each plant hormone was diluted with culture medium, wherein concentrations of DMSO, water, methanol, and ethanol in the culture medium were below 1% (v/v). The half-maximal inhibitory concentration (IC50) was calculated using CompuSyn software (ComboSyn Inc., Paramus, N.J., USA).
(§2) The inhibitory effect of plant hormones and their derivatives was investigated on 5 NSCLC cell lines (A549, H1437, H2087, H522, and HCC827). The NSCLC cells were treated with ABA, Cor, ethephon, GR-24, IAA, KR, MJ, N6b, N6i, oTR, and SS-HCS at concentrations of 0.1, 0.5, 1, 5, 10, 50, and 100 μM. Cell viability and IC50 values for 48 hours were investigated by performing the MTT assay.

The subject of experiment [3] is A549 cells. The experiment can be described thus: Annexin V-FITC/propidium iodide flow cytometric apoptosis analysis. The note with it: 48 hours. The format is cell-based, Human. The procedure: To detect apoptotic cells, flow cytometric analysis was performed using Annexin V-FITC/propidium iodide double staining of NSCLC cells. A549 cells (4×10^5) were grown to approximately 70-80% confluency in 60 mm dish and treated with oTR (5, 10, and 50 μM) for 48 hours. The cells were stained using the FITC Annexin V Apoptosis Detection Kit (556547, BD Biosciences, Franklin Lakes, N.J., USA) as previously described.
(In general: A flow cytometer gives signals particle by particle.)

Experiment [4] relates to xenograft tumor tissues. Description: GC-MS and nanoESI-MS metabolite and lipid profiling of xenograft tumor tissues. It is filed as in vivo, nude mice (female, BALB/cSlc-nu/nu). As for the experimental part:
The tumor tissue was weighed above 25 mg, and 0.3 mL of ice-cold methanol containing 0.1% BHT was added, followed by homogenization for 1 minutes. Homogenized samples were centrifuged at 10,000×g for 15 minutes at 4° C. The supernatant corresponding to 10 mg of the tissue was used, and metabolites and lipids were extracted using modified Folch method.
To perform metabolite and lipid analyses of the extracted samples of NSCLC cells and xenograft tumor tissues, GC-MS and nanoESI-MS analyses were conducted according to a previously described method. For quality control (QC), the equal volume of mixture was taken from each sample to be analyzed.
Raw data files of the lipid analysis (*.raw) were converted into *.mzXML format using the Proteo Wizard MSConvert software. The metabolite and lipid mass spectra were converted using the Expressionist® MSX software (version 2013.0.39, Genedata, Basel, Switzerland) for data processing. The data obtained from NSCLC cells were divided by the peak intensity of the internal standard and total protein content for normalization. The data obtained from the NSCLC xenograft model were divided by the peak intensity of the internal standard for normalization. The data obtained thereby were used for fold-change analysis using the MetaboAnalyst (version 5.0; http://www.metaboanalyst.ca). SPSS software (version 26, IBM, Somers, N.Y.) was used for significance examination for the results, and identification was conducted by Student's t-test and Mann-Whitney test. All data were mean-centered and pretreated to Pareto scaling for principal component analysis (PCA) and orthogonal partial least-squares discriminant analysis (OPLS-DA), performed using the SIMCA-P software (version 15.0.2, Sartorius Stedim Data Analytics AB, Umea, Sweden). Cross validations and permutation tests (100 times) were performed to evaluate the goodness of fit value and predictability of the OPLS-DA model. Volcano plots were generated using the GraphPad Prism 9.0.
oTR-induced alterations of metabolic and lipidomic profiles were analyzed using 5 NSCLC cell lines (A549, H1437, H2087, H522, and HCC827) and xenograft tumor tissues by performing GC-MS and nanoESI-MS analyses. The relative changes in identified metabolites and intact lipid species are shown as fold-changes. Myo-inositol, amino acids (β-alanine, aspartate, serine, threonine, glutamate, glycine, proline, and tyrosine), organic acids (malate and lactate), pyrimidines (uracil and uridine), creatinine, hypoxanthine, and putrescine decreased in oTR-treated NSCLC cells compared to those in NSCLC cells. These metabolites were the outcomes of consistent and significant alterations in 3 NSCLC cell lines compared to those of respective controls.

Experiment [5] deals with A549. Description: MTT cell viability assay, A549. The note with it: 48 hours. The format is cell-based, Human. As for the experimental part:
as §1, §2
(In general: Formazan colour is commonly taken as a measure of viable cells.)

Experiment [6] concerns NSCLC cells. Description: MTT cell viability assay, NSCLC cells overall. The format is cell-based, Human. As for the experimental part: as §1, §2
[7] abbreviates: oTR-treated NSCLC tumor tissues.
The mark [8] stands for this setting: both oTR groups (100 and 150 mg/kg).

As a reminder, the IC50 is the midpoint of a concentration-inhibition curve. Higher therefore signals lower potency.

“And” between values parts separate entries of the source, which are not always exact repeats. Identical values can stand only once.

`OC[C@H]1O[C@@H](n2cnc3c(NCc4ccccc4O)ncnc32)[C@H](O)[C@@H]1O` [oTR, ortho topolin riboside]: the “expression of cleaved caspase-3” value in experiment [1] (oTR (150 mg/kg)-treated group) is “significantly increased”. Further, in experiment [1] (setting [7]), the ERK expression result was “significant increase”; the “p-AKT and AKT expressions” value is on record as “no significant changes”; the p-ERK expression result is “significant decrease”. For the same compound, the half-inhibitory concentration (IC50) in experiment [2] is 51.4 µM and 26.1 µM. Further, the “increase in percentage of late apoptotic cells compared to untreated NSCLC cells” value in experiment [3] (10 μM oTR) was determined as 5.70±0.16%. Moreover, in experiment [3] (50 μM oTR), the “increase in percentage of late apoptotic cells compared to untreated NSCLC cells” value is 24.56±9.37%. The “PC, PE, PG, and PI species levels” value in experiment [4] (100 mg/kg and 150 mg/kg) is given as “increase”. Also, the PS species levels entry in experiment [4] (150 mg oTR-treated group vs control) was “increased”. The “level of aspartate, ascorbate, glucose, glutamate, ornithine, phenylalanine, proline, serine, threonine” value in experiment [4] (150 mg/kg group vs control) is “significant reduction”. For the same compound, in experiment [4] (setting [8]), the “citrate, ornithine, and uridine levels” value is given as “significantly decreased”; the “β-alanine, aminomalonate, glycerol, glycine, and uracil levels” value was “increased”. This compound showed an IC50 in experiment [5] of 34.3 ± 4.4 µM. The “viability of NSCLC cells” value in experiment [6] (48 hours of oTR treatment, FIG. 1) is recorded as “reduced”. Besides, in experiment [6] (48 hours, MTT assay), the “IC50 values compared among all tested plant hormones and derivatives” value is “lowest IC50 values”.

Source of the values: patent publication US20230241088A1, “COMPOSITION FOR PREVENTING OR TREATING LUNG CANCER COMPRISING ORTHO-TOPOLIN RIBOSIDE AS ACTIVE INGREDIENT” (CHUNG-ANG UNIVERSITY INDUSTRY-ACADEMY COOPERATION FOUNDATION, priority 2022, published 2023).
